Laboratory results taken from patent US9796777B2, “Methods of treating malignant tumors” (Canimguide Therapeutics AB, priority 2007, dated 2017).
Values joined by “and” are separate entries in the source; they are usually repeats but may differ in a detail not shown here. Identical values can stand only once.

Experiments:
[1] = test system: cell surface receptors of immune cells (ACS); test: Adsorption of enzyme fragmented dHSA on affinity column with biotinylated cell surface proteins (ACS), MALDI-TOF ms; assay type: binding, human; settings: for Per cent adsobed: Table 6 A, molecular weight 700-3600 Da
Description: Based on the observation that immunoregulatory peptide sequences are present in serum albumin, there is the possibility that other sequences than the epitope of mAb A have immunoregulatory function. Therefore an artificial cell surface (ACS) was prepared as described in materials and methods. […]
To remove unfragmented albumin and enzyme, the sample was ultra filtered through an Amicon Ultra 4 (mw cut-off of 5000) or a Centriplus (mw cut-off 10000) centrifugal filter (Millipore AB, Solna, Sweden). The filtrate, containing fragmented dHSA without enzymes, was collected and diluted with PBS with Ca and Mg (GIBCO).
Buffy coats generated from 450 ml blood each was collected from 4 healthy donors. Erythrocytes were removed by sedimentation on 2% dextran T500 solution (Amersham Pharmacia Biotech AB, Uppsala Sweden) in 0.9% NaCl. Mononuclear cells (PBMC) were then isolated by Ficoll-Paque Plus (GE Healthcare Bioscience AB Sweden) density gradient centrifugation. The PBMC were then suspended in phosphate buffered saline (PBS) containing Ca and Mg (GIBCO) at a concentration of 10×10^6/ml. EZ Link Sulfo-NHS-biotin (Pierce USA) was added at a final concentration of 0.2 mg/ml and the mixture incubated on a shaker at room temperature for 10 min. Excess biotin was then removed by washing the PBMC in PBS. Biotinylated PBMC were then lysed by adding 1.0 ml ice-cold lysing buffer (50 mM Tris-HCL, pH 7.5, with 0.15 M NaCl, 5 mM MgCl2 containing 100 mM Octyl glucoside and 1 mM Phenylmethylsulfonyl fluoride) per 2×10^7 pelleted cells with gentle shaking, then incubated for 30 min. on ice. Debris was removed by centrifugation at 5000×g at 4° C. for 10 min and the supernatants was collected and pooled from all four donors. The lysate was then stored at −70° C. in polypropylene plastic tubes.
This amount of lysate corresponds to 36×10^7 mononuclear cells. It was added to a 1 ml Hitrap Streptavidin HP affinity column (Amersham Biosciences). To block possible remaining free biotin, 5 ml of 0.1 M glycine (Sigma) was added to the column. Unsaturated streptavidin on the column was then reacted with 150 ug biotin (Sigma) in binding buffer. The column was carefully washed with PBS and stored in PBS with 0.1% NaN3 at 4° C. until use.
27 ml biotinylated cell lysate in binding buffer (corresponding to 54×10^7 mononuclear cells) was added to 1.5 ml washed Streptavidin Sepharose HP (Amersham Biosciences). To block possible remaining free biotin, 25 ml of 0.1 M glycine (Sigma) was added to the Streptavidin Sepharose. Unsaturated streptavidin was then reacted with 225 μg biotin (Sigma) in binding buffer. The Streptavidin Sepharose was carefully washed in PBS. One ml of the biotinylated cell lysate coupled Streptavidin Sepharose was then packed in an empty column (Tricorn Empty High Performance Column, Amersham Bioscience) and washed with phosphate buffered saline (PBS) containing Ca and Mg (GIBCO).
The flow-through was collected with consideration taken to void volume and dilution of adsorbed sample by collecting in small portions of 0.2 ml. Thirty ul of each sample, including a control sample that has not been adsorbed, were dried in a Speed-Vac centrifuge.
Dried samples were reconstituted in 10 ul of 0.1% TFA. Zip Tip pipette tips (Millipore, USA) containing C18 reversed-phase media were used for desalting reconstituted samples. […] For the analysis of samples in the mass range 1500-9000 Da, one μl of each Zip Tip eluted sample was mixed with 1 μl of sinapinic acid ([…]). […] Mass identity search of resulting spectra was performed in the SwissProt or NCBI databases using MS-Fit.

PBMCs = test: PHA-induced proliferation of PBMC in the presence of albumin peptides and/or dHSA; assay type: cell-based, human
Excerpt: Venous blood was drawn from healthy volunteers or from cancer patients in glass vacuum tubes with acid dextrose citrate solution A as anti-coagulant (Vacutainer, Becton Dickinson, Franklin Lakes, N.J.). Erythrocytes were removed by sedimentation on 2% dextran T500 solution (Amersham Pharmacia Biotech AB, Uppsala, Sweden) in 0.9% NaCl (this step was omitted for cultures with PHA-stimulation-see below). […] For cell cultures with PHA-stimulation, PBMC were washed in Hank's Balanced Salt Solution (HBSS) with 10% autologous plasma instead of RPMI/2% HSA. […] The cell suspension was stained with Turk's solution and the number of lymphocytes and monocytes in the PBMC preparation were counted in a hemocytometer. PBMCs were suspended in RPMI/2% HSA and the cell concentration adjusted to 5×10^5 lymphocytes/ml.
100 μl of the cell suspension were seeded into round-bottomed microtiter plates (Corning, N.Y., USA) followed by 100 μl of culture medium consisting of RPMI 1640 (Flow Laboratories, Irvine, Scotland) supplemented with 200 IU/ml Penicillin, 200 μg/ml Streptomycin (Flow laboratories) and 20% heat inactivated autologous serum. Phytohemagglutinin (PHA-P, Sigma Chemical Co, St. Louis, Mo.) at a final concentration of 5 or 10 μg/ml was then added.
All culture conditions were set up in triplicate wells. […] Mean values of disintegrations per minute (dpm) of triplicates were used for the calculations.

PBMC = test: LPS-induced IL-6 production by PBMC, effect of peptides; assay type: cell-based, human; settings: PBMCs from one healthy control; lowest peptide concentration
Description: 100 μl of culture medium consisting of RPMI1640 supplemented with 200 IU/ml penicillin, 200 μg/ml streptomycin, 4 mM L-glutamine (Sigma Chemical, Mo., US) and 20% fresh heat-inactivated autologous serum were added to un-coated or -pre-coated microtiter plates followed by 100 μl of PBMC suspension (5×10^4 lymphocytes) in RPMI/2% HSA with peptides at the indicated concentrations. Lipoplysaccharide (LPS, Sigma Chemical Co, MO, US) was added at a final concentration of 0.05 ng/ml. […] All assay conditions were set up in triplicate wells. Supernatants (SNs) were harvested after 24 hrs and residual cells were removed by centrifugation in a refrigerated centrifuge (Beckman) at 2600×g for 5 minutes. SNs were frozen and stored at −70° C. IL-6 in cell culture SNs was measured by ELISA using the DuoSet® ELISA development kit for human IL-6 (R&D Systems Europe, Ltd., Abingdon, UK) following the manufacturer's recommended procedures. The lower limit of detection was 3.1 pg/ml. Samples were analysed as mean of triplicate wells.

[2] = Table 5 A, peptides generated by trypsin degradation of dHSA
[3] = PHA 5 μg/ml, peptides 10 μg/ml, 5 healthy controls and 4 patients
[4] = patient P46, lowest peptide concentration
[5] = peptides 10 μg/ml, lower dHSA concentrations
[6] = peptides 10 μg/ml, two highest dHSA concentrations
[7] = Table 6 B, ASP-DHSA, molecular weight 3200-9000 Da
[8] = Table 5 B, trypsin peptides selected for synthesis

Work on “AAFTECCQAADK [(K)AAFTECCQAADK (A), tryptic peptide of dHSA]” yielded a Per cent adsorbed [1, 2] of 0.29 Per cent.
Work on “AVMDDFAAFVEK [570-581, tryptic peptide of dHSA]” yielded a Per cent adsorbed [1, 2] of 0.23 Per cent.
“CCAAADPHECYAK [384-396, tryptic peptide of dHSA]” was tested, and the Per cent adsorbed [1, 2] was 0.32 Per cent.
“DDKETCFAEEGKKLVAASQAALGL [ASP-N fragment of dHSA]” showed a Per cent adsobed ([1]; ASP-DHSA) of 1.00 Per cent.
With “DETYVPKEFNAETFTHA [ASP-N fragment of dHSA]” the Per cent adsobed ([1]; ASP-DHSA) was 0.86 Per cent.
“DHVKLVNEVTEFAKTCVA [ASP-N fragment of dHSA]” gave a Per cent adsobed ([1]; ASP-DHSA) of 1.00 Per cent.
For “DKLCTVATLRETYGEM [ASP-N fragment of dHSA]”, the Per cent adsobed ([1]; ASP-DHSA) was 0.65 Per cent.
For “DRVTKCCTESLVNRRPCFSALEV [ASP-N fragment of dHSA]”, the Per cent adsobed ([1]; ASP-DHSA) was 0.87 Per cent.
With “DSISSKLKECCEKPLLEKSHCIAEVEN [ASP-N fragment of dHSA]” the Per cent adsobed ([1]; ASP-DHSA) was 0.65 Per cent.
For ELFEQLGEYKF [peptide 2608], the “effect on PHA induced proliferation of PBMCs” value (“effect … of PBMCs” below) (PBMCs; [3]) was “stimulatory effect in ¼ controls whereas ¾ patients were stimulated”, the “effect … of PBMCs” value (PBMCs; [4]) was “clear stimulatory activity” and the “effect on dHSA enhanced PHA induced proliferation” value (PBMCs; [5]) was “stimulated the proliferative rate”. For the same substance, the “effect on dHSA enhanced PHA induced proliferation” value (PBMCs; [6]) was “significantly inhibited the stimulatory activity” and the “effect on LPS induced IL-6 production” value (PBMC) was “inhibitory”.
“ETYGEMADCCAK [106-117, tryptic peptide of dHSA]” was tested, and the Per cent adsorbed [1, 2] was -0.08 Per cent.
“FKDLGEENFK [(R)FKDLGEENFK (A), tryptic peptide of dHSA]” gave a Per cent adsorbed [1, 2] of 0.08 Per cent.
“ICTLSEKERQIKKQ TALVELVKHK PKATKEQLKA VM (ICTLSEKERQIKKQTALVELVKHKPKATKEQLKAVM) [ASP-N fragment of dHSA]” showed a Per cent adsorbed [1, 7] of 1.00 Per cent.
For “KLCT VATLRETYGE MA DCCAKQEP ERNECFLQHK (KLCTVATLRETYGEMADCCAKQEPERNECFLEHK; HOMO SAPIENS) [ASP-N fragment of dHSA]”, the Per cent adsorbed [1, 7] was 1.00 Per cent.
With KLVNEVTEFAKT [peptide 2604] the “effect on LPS induced IL-6 production” value (PBMC) was “stimulatory”.
“KYLYEIAR [(K)KYLYEIAR (R), tryptic peptide of dHSA]” was tested, and the Per cent adsorbed [1, 2] was 0.71 Per cent and the “Per cent adsorbed” value [1, 8] was 0.71 Per cent.
For “LAKYICE NQDSISSKLK ECCEKPLLEK SHCIAEVEN (LAKYICENQDSISSKLKECCEKPLLEKSHCIAEVEN) [ASP-N fragment of dHSA]”, the Per cent adsorbed [1, 7] was 1.00 Per cent.
Work on “LGE ENFKALVLIAFAQYLQQCPFEDHVKLVNEVTEFAKTCVA (LGEENFKALVLIAFAQYLQQCPFEDHVKLVNEVTEFAKTCVA; HOMO SAPIENS) [ASP-N fragment of dHSA]” yielded a Per cent adsorbed [1, 7] of 1.00 Per cent.
With “LKECCEKPLLEK [299-310, tryptic peptide of dHSA]” the Per cent adsorbed [1, 2] was 0.36 Per cent.
With “NECFLQHK [(R)NECFLQHK (D), tryptic peptide of dHSA]” the Per cent adsorbed [1, 2] was 0.22 Per cent.
For NEETFLKKYLYE [peptide 2605], the “effect … of PBMCs” value (PBMCs; PBMCs from K92, three peptide concentrations) was “biphasic response pattern”, the “effect on dHSA modulated PHA stimulated proliferation” value (PBMCs; PBMCs from two healthy controls, two PHA concentrations) was “inhibited the stimulatory activity of dHSA” and the “effect … of PBMCs” value (PBMCs; [3]) was “inhibitory or stimulatory effects in one control each and one patient each”. The “effect … of PBMCs” value (PBMCs; [4]) was “clear stimulatory activity”, the “effect on dHSA enhanced PHA induced proliferation” value (PBMCs; [5]) was “stimulated the proliferative rate” and the “effect on dHSA enhanced PHA induced proliferation” value (PBMCs; [6]) was “significantly inhibited the stimulatory activity”.
In the case of “QEPERNECFLQHK [(K)QEPERNECFLQHK (D), tryptic peptide of dHSA]”, the Per cent adsorbed [1, 2] is reported as 0.26 Per cent and 0.18 Per cent.
With “QNCELFEQLGEYK [414-426, tryptic peptide of dHSA]” the Per cent adsorbed [1, 2] was 0.20 Per cent and the “Per cent adsorbed” value [1, 8] was 0.20 Per cent.
Work on “RPCFSALEVDETYVPK [tryptic peptide of dHSA]” yielded a Per cent adsorbed [1, 2] of 0.42 Per cent.
“RVTKC CTESLVNRRPCFSALEVDETYVPKEFNAETFTFHA (RVTKCCTESLVNRRPCFSALEVDETYVPKEFNAETFTFHA; HOMO SAPIENS) [ASP-N fragment of dHSA]” was tested, and the Per cent adsorbed [1, 7] was 1.00 Per cent.
With “SISSKLKECCEKPLLEK SHClAEVEN DEMPA (SISSKLKECCEKPLLEKSHCIAEVENDEMPA; HOMO SAPIENS) [ASP-N fragment of dHSA]” the “binding to ACS” value ([1]; asparaginase degraded dHSA) was “contradictory results”.
In the case of “SLHTLFGDK [089-097, tryptic peptide of dHSA]”, the Per cent adsorbed [1, 2] is reported as 0.36 Per cent.
Substance “VF LGMFLYEYARRHPDYSVVLLLRLAKTYETTLEKCCAAA (VFLGMFLYEYARRHPDYSVVLLLRLAKTYETTLEKCCAAA; HOMO SAPIENS) [ASP-N fragment of dHSA]” has a Per cent adsorbed [1, 7] of 1.00 Per cent.
In the case of “VHTECCHGDLLECADDR [tryptic peptide of dHSA]”, the Per cent adsorbed [1, 2] is reported as 0.13 Per cent.
“VPQVSTPTLVEVSR [tryptic peptide of dHSA]” gave a Per cent adsorbed [1, 2] of 0.59 Per cent.
“YICENQDSISSK [287-298, tryptic peptide of dHSA]” showed a Per cent adsorbed [1, 2] of 0.03 Per cent.
For “YKAAFTECCQAADK [tryptic peptide of dHSA]”, the Per cent adsorbed [1, 2] was -0.37 Per cent.
Work on “YLSVVLNQLCVLHEK TPVS DRVTKC CTESLVNRRP CFSALEV” yielded a Per cent adsorbed [1, 7] of 0.37 Per cent.
“YSVVLL LRLAKTYETT LEKCCAAADP HECYAKVF (YSVVLLLRLAKTYETTLEKCCAAADPHECYAKVF; HOMO SAPIENS) [ASP-N fragment of dHSA]” showed a Per cent adsorbed [1, 7] of 1.00 Per cent.
